Assay results as given in the NIST ThermoML archive (doi:10.1021/je050156k).

Settings: Liquid; for mass density: 101.33 kPa; for vapor or sublimation pressure: Closed cell (Static) method

C1CCC2OC2C1 (stereo unspecified) [7-oxabicyclo[4.1.0]heptane]
Settings	mass density [kg/m3]	vapor or sublimation pressure [kPa]
277.7 K	988.4	–
289 K	978	–
293.2 K	972.2	–
303.2 K	963.8	–
313.2 K	955	–
323.2 K	944.8	–
333.2 K	935.4	–
343.2 K	925.5	–
353.2 K	915.7	–
360.91 K	–	25.5
361.13 K	–	25.8
363.2 K	903.9	–
382.47 K	–	52.4
383.09 K	–	53.6
404.87 K	–	101.3
405.48 K	–	103.8
423.87 K	–	167
443.95 K	–	268
453.99 K	–	333
463.99 K	–	409
474.03 K	–	497
